Tests used:
Assay in all cases: IC50 Determination
[1] = biological target: T1, Aldehyde dehydrogenase, dimeric NADP-preferring (Homo sapiens, UniProt P30838)
T1 sequence (P30838 whole entry): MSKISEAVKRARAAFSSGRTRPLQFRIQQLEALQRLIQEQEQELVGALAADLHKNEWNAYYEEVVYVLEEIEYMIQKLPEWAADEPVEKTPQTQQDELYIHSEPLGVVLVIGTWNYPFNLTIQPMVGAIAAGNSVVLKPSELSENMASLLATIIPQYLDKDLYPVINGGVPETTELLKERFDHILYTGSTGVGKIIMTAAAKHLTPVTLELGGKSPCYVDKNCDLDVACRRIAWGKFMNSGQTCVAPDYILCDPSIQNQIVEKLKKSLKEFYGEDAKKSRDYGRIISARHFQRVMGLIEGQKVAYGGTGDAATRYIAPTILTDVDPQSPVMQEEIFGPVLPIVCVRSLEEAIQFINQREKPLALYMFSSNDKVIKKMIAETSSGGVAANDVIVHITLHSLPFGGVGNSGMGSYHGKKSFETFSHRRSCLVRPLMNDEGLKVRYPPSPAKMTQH
Experimental: (§1) To determine the IC50 values for CB29 and its analogues, propionaldehyde was used as the substrate for ALDH1A1 and ALDH2 and benzaldehyde was used as the substrate for ALDH3A1. The assays were performed at various concentrations of inhibitors, ranging from 50 nM to 250 uM, following 1 min preincubation. All reactions were initiated by the addition of the aldehyde substrate.

[2] = biological target: T2, Aldehyde dehydrogenase 1A1 (Homo sapiens, UniProt P00352)
T2 sequence (P00352 whole entry): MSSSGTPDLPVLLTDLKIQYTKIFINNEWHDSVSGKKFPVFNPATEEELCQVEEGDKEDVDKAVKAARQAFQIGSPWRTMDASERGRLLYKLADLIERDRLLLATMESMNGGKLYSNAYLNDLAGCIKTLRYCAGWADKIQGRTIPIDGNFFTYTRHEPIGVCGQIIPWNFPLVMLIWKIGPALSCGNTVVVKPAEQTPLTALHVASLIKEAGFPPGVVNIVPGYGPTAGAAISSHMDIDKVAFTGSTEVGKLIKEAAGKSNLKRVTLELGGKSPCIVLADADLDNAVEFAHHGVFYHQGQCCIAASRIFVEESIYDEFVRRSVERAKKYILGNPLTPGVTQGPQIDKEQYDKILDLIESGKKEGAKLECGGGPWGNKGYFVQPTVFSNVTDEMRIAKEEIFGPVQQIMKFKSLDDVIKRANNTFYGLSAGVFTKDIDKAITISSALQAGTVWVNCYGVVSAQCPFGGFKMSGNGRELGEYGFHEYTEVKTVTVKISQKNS
Experimental: as §1

[3] = biological target: T1, Aldehyde dehydrogenase, dimeric NADP-preferring; remark: listed apart in the source

IC50 [1]	IC50 [2]	Compound	Ki [3]
26.3 µM		CC(C)NS(=O)(=O)c1ccc(Nc2cccc(NC3CC3)c2)c([N+](=O)[O-])c1 [CB29 (derivative 9)]	
19.6 µM	16.8 µM	CC(C)C(=O)Nc1ccc(Nc2ccc(S(C)(=O)=O)cc2[N+](=O)[O-])cc1 [CB29 (derivative 12)]	
42.3 µM	11.6 µM	CNS(=O)(=O)c1ccc(Nc2ccc(NC(=O)CC(C)C)cc2)c([N+](=O)[O-])c1 [CB29 (derivative 13)]	
26.9 µM		CS(=O)(=O)c1ccc(Nc2ccc3c(c2)CCC3)c([N+](=O)[O-])c1 [CB29 (derivative 17)]	
30.5 µM		CC(C)NS(=O)(=O)c1ccc(Nc2ccc3c(c2)CCC3)c([N+](=O)[O-])c1 [CB29 (derivative 18)]	

Continued, compound first:

Compound	IC50 [1]	IC50 [2]	Ki [3]
CN(C)c1ccc(Nc2ccc(S(=O)(=O)C(F)(F)F)cc2[N+](=O)[O-])cc1 [CB29 (derivative 5)]	17 µM		
CS(=O)(=O)c1ccc(Nc2ccc(NCC3CCCC3)cc2)c(S(C)(=O)=O)c1 [CB29 (derivative 6)]	40 µM	32 µM	
CCN(CC)S(=O)(=O)c1ccc(Nc2ccc(NC(=O)C(C)C)cc2)c([N+](=O)[O-])c1 [CB29 (derivative 14)]	100 µM	8.3 µM	
CC(Nc1ccc(S(C)(=O)=O)cc1[N+](=O)[O-])C(=O)O (configuration not stated) [CB29 (derivative 16)]		50 µM	
CC(C)NS(=O)(=O)c1ccc(NC2CCN(CC(=O)Nc3ccccc3)CC2)c([N+](=O)[O-])c1 [CB29 (derivative 19)]	25.6 µM		
CC(=O)Nc1ccc(Oc2ccc(S(=O)(=O)C(F)(F)F)cc2[N+](=O)[O-])cc1 [CB29 (derivative 20)]	100 µM		
CC(=O)Nc1ccc(Nc2ccc(S(C)(=O)=O)cc2[N+](=O)[O-])cc1 [CB29]	16 µM		4.7 µM

— BindingDB's records for doi:10.1002/cbic.201300625 (Indiana University, 2014)
